For one data set, the target named is T1, GST-SURF4^49-60 (Homo sapiens, UniProt O15260).
T1 construct: SURF4 (49-60) in the same buffer was in the calorimetric cell; made in house; host or cells: Escherichia coli
The data set can be described thus: Peptide bead pull down with purified GST-SURF4^49-60 as prey. It is filed as binding. The note with it: normalized to CW peptides; n = 3, mean ± SD (values only in Fig. 3O); anti-GST immunoblot; HK buffer pH 7.2, 4 °C. How it is done: (§1) Immunoprecipitation was performed as described ([27]). Purification of GST-tagged ShhN^25-49 and GST-tagged SURF4^49-60 was performed as described previously ([54]). GST pull down assays were performed as described previously ([54]). Peptide binding assay was performed as described previously ([27]). […]
in cold KOAc buffer (110 mM KOAc, 2 mM Mg(OAc)2, 20 mM Hepes, pH 7.2). Then cells were permeabilized by 0.03 mg/ml digitonin in KOAc buffer for 6 min at room temperature. The permeabilized cells were washed with cold KOAc buffer. […]
(§2) Binding assays between Myc- tagged SURF4 or Myc-tagged SURF4ED-AA and HA-tagged ShhN or ShhN∆33- 39 were performed by treating HEK293T cells co -transfected with plasmids encoding the indicated proteins in 1 × PBS containing 2 mM dithiobis[succinimidylpropionate] […] After incubation, the beads were washed 4 times with 1 ml of HK buffer (100 mM KCl, 20 mM Hepes, pH 7.2), and the bound material was analyzed by immunoblotting. […]
(§3) After incubation, the beads were washed three times with 500 µ l of HKT buffer and twice with 500 µ l of HK buffer, and the bound material was analyzed by immunoblotting. […]
(§4) reaction mixture for 1 h at 4 °C. The beads were washed four times with 500 µ l of HK buffer and analyzed […]
Label-free quantitative mass spectrometry […]

Data set [1] concerns packaging of ERGIC53 into transport vesicles. The data set can be described thus: In vitro vesicle formation assay, packaging of ERGIC53. The note with it: semi-intact HEK293T cells, rat liver cytosol, GTP, ATPrS, 0.5 µg Sar1A (H79G). It is filed as cell-based. As for the experimental part:
(§5) To analyze whether the CW motif is important for the packaging of ShhN into COPII vesicles, we reconstituted vesicular release of ShhN in HEK293T cells (Fig. 1T). HEK293T cells transfected with 3xHA-tagged ShhN (ShhN-HA) were permeabilized by digitonin. After permeabilization, the semi-intact cells were washed with buffer to remove endogenous cytosolic proteins. Semi-intact cells were then incubated at 30 °C with rat liver cytosol (RLC), GTP, and an ATP regeneration system (ATPrS) in the presence or absence of a GTP hydrolysis defective mutant form of Sar1A, Sar1A (H79G). The vesicles released were then isolated by centrifugation and analyzed by immunoblotting (Fig. 1T). […] Deleting residues 33 to 49 (Fig. 1V) or deleting the CW motif (residues 33 to 39) in ShhN caused a significant reduction in the efficiency of packaging of ShhN into vesicles (Fig. 1W and quantification in Fig. 1X), while the abundance of ERGIC53 in transport vesicles was unchanged (Fig. 1Y). […]
as §4
(§6) Label-free quantitative mass spectrometry
(§7) Mass spectrometry was performed to identify the proteins involved in Shh secretion. […] Finally, the resulted peptides were analyzed by Mass Spectrometer. The tandem mass spectra were then subject to protein identification and label-free quantification by Proteome Discoverer. […]

For data set [2], the system named is COPII-dependent ER export. The note with it: cited from earlier work. As for the experimental part:
To analyze whether the CW motif is important for the packaging of ShhN into COPII vesicles, we reconstituted vesicular release of ShhN in HEK293T cells (Fig. 1T). HEK293T cells transfected with 3xHA-tagged ShhN (ShhN-HA) were permeabilized by digitonin. After permeabilization, the semi-intact cells were washed with buffer to remove endogenous cytosolic proteins. Semi-intact cells were then incubated at 30 °C with rat liver cytosol (RLC), GTP, and an ATP regeneration system (ATPrS) in the presence or absence of a GTP hydrolysis defective mutant form of Sar1A, Sar1A (H79G). The vesicles released ...

The subject of data set [3] is packaging of ShhN-HA into transport vesicles. Briefly: In vitro vesicle formation assay, packaging of ShhN-HA. In kind it is cell-based. How it is done:
as §5, §4, §6, §7

The subject of the next data set is SURF4-Myc. Briefly: Crosslinking co-IP of SURF4-Myc with HA-tagged cargo. It is filed as binding, human. The note with it: HEK293T, 2 mM DSP. How it is done:
as §1
Immunoprecipitation, protein purification, and binding assay
Immunoprecipitation of HA-tagged ShhN was performed by incubating 200 µl of 0.5 mg/ml cell lysates from HEK293T cells transfected with ShhN- HA in HKT buffer with 10 μl of compact anti-HA agarose affinity beads with mixing at 4 °C overnight. After incubation, the beads were washed 4 times with 1 ml of HK buffer (100 mM KCl, 20 mM Hepes, pH 7.2), and the bound material was analyzed by Coomassie blue staining and immunoblotting.
as §2, §3

The test system of the next data set is ShhN-SURF4 interaction. Briefly: Heparin competition in GST pull down of SURF4-HA by ShhN^25-49-GST. As to conditions: n = 3. It is filed as binding, human. How it is done:
as §1
Immunoprecipitation, protein purification, and binding assay […]
After incubation, the beads were washed 4 times with 1 ml of HK buffer (100 mM KCl, 20 mM Hepes, pH 7.2), and the bound material was analyzed by Coomassie blue staining and immunoblotting.
Binding assays between Myc- tagged SURF4 or Myc-tagged SURF4ED-AA and HA-tagged ShhN or ShhN∆33- 39 were performed by treating HEK293T cells co -transfected with plasmids encoding the indicated proteins in 1 × PBS containing 2 mM dithiobis[succinimidylpropionate] (DSP) and 2 mM CaCl2 at room temperature for 30 min, and then quenched with 25 mM Tris-HCl, pH 7.5. 200 µl of 0.5 mg/ml cell lysates were incubated with 10 μl of compact anti-HA agarose affinity beads with mixing at 4 °C overnight. After incubation, the beads were washed 4 times with 1 ml of HK buffer (100 mM KCl, 20 mM Hepes, pH 7.2), and the bound material was analyzed by immunoblotting. […]
as §3

For another data set, the target named is T2, CW peptides (KRRHPKKC) ( (human or mouse cDNA cloned)).
T2 construct: Cardin-Weintraub (CW) motif of Shh, residues 33 to 39 in ShhN; C-terminal cysteine printed after the KRRHPKK motif; In the pull-downs the peptide was covalently linked to thiopyridone Sepharose 6B; also called peptides corresponding to the CW motif; source: synthetic peptide
T2 peptide: KRRHPKKC
The data set can be described thus: ITC; isothermal titration calorimetry of CW peptides with GST-SURF4^49-60 or GST. The note with it: both partners purified. For orientation: Isothermal titration calorimetry measures the heat released or taken up as one component is titrated into another.

Take “AAAHPAAC [CW(KR-AA), alanine substituted mutant (AAAHPAAC)]”: on GST-SURF4^49-60, the “level of GST-SURF4^49-60 bound relative to CW peptides” value is on record as “bound more efficiently to the wild-type CW sequence than an alanine substituted mutant”.

Consider “Sar1A (H79G): GTP hydrolysis defective mutant form of Sar1A”, for which the “efficiency of packaging of ERGIC53 into transport vesicles” value in data set [1] was “greatly reduced”. In addition, in data set [2], the “COPII-dependent ER export” value is recorded as “inhibits COPII-dependent ER export”; the “membrane association of SEC23A/B” value is on record as “enhances membrane association of SEC23A/B”; the “vesicular capture of SEC22B and ERGIC53” value is “abolishes the vesicular capture”; the “vesicular release of TGN46” value was “does not affect the vesicular release”. The “efficiency of packaging of ShhN-HA into transport vesicles” value in data set [3] (HEK293Trex cells, SAR1A (H79G)) was “reduced the efficiency of packaging”. For the same molecule, the “efficiency of packaging of ShhN-HA into transport vesicles” value in data set [3] (semi-intact HEK293T cells, rat liver cytosol, GTP, ATPrS, 0.5 µg Sar1A (H79G)) is “greatly reduced”.

On to “ShhN-HA: 3xHA-tagged N-terminal fragment of Shh without the cholesterol modification”, for which the “percentage of SURF4-Myc bound to ShhN-HA vs CW motif-depleted ShhN” value in the data set on SURF4-Myc (n = 3) was “significantly higher than the percentage of SURF4-Myc that bound to ShhN^Δ33-39-HA”. In addition, the “interaction with SURF4 vs IGF2” value in the data set on SURF4-Myc (SURF4-Myc, HA beads) was “more robustly than IGF2”.

“VRRFRYPERPC [peptides corresponding to the first intracellular loop of Frizzled6 (…)]”: on GST-SURF4^49-60, the “level of GST-SURF4^49-60 bound relative to CW peptides” value was “significantly lower than that bound to the CW peptides”.

Turning to heparin, the “inhibition of the interaction between ShhN and SURF4” value in the data set with ShhN-SURF4 interaction (GST pull down with ShhN^25-49-GST and SURF4-HA lysate) was “inhibited the interaction between ShhN and SURF4 in a concentration-dependent manner”. In addition, the “inhibition of the ShhN-SURF4 interaction at pH 6.0” value in the data set with ShhN-SURF4 interaction (pH 6.0) is “still inhibits the ShhN-SURF4 interaction”.

B1: GST-SURF4^49-60 (domain or fragment, human, UniProt O15260 49-60, looked up)
chain: SEQRDYIDTTWN
notes: first luminal loop of SURF4, amino acids 49 to 60; also called GST-tagged SURF4^49-60; source: E. coli, purified
B1: the Kd (in general, the equilibrium constant for the complex coming apart) in the data set with CW peptides (KRRHPKKC) is 2350 ± 90 nM.

The values are drawn from article PMC8931250, “A SURF4-to-proteoglycan relay mechanism that mediates the sorting and secretion of a tagged variant of sonic hedgehog” (Proceedings of the National Academy of Sciences of the …, 2022).
